Assay results: paper PMC10555500, “Evaluation of the Antiproliferative Properties of CpRu Complexes Containing N-Methylated Triazaphosphaadamantane Derivatives” (Bioinorganic Chemistry and Applications, 2023)

Assays:
[1] = tested on: MDA-MB-231 breast cancer cells; test: MTT cytotoxicity assay, MDA-MB-231 cells; assay type: cell-based, human; conditions: for IC50: 24 h incubation, MTT, average of at least three experiments (±SD)
Procedure: (§1) The MDA-MB-231 and MCF-7 human breast cancer cells were purchased from ATCC. The MDA-MB-231 and MCF-7 cells were grown in Dulbecco's modified Eagles' medium (DMEM high glucose) (Capricorn Scientific) at 37°C in 5% CO2 supplemented with 10% fetal bovine serum (Capricorn Scientific). HDF cells were purchased from Merck and were grown in the fibroblast growth medium. All cells were adherent in monolayers and, upon confluence, were washed with phosphate buffer saline (PBS) and harvested by digestion with trypsin-EDTA 0.05% (v/v). The cells were suspended and transferred into new, sterile, culture flasks for maintenance or seeded in sterile test microplates for different assays. All cells were manipulated under aseptic conditions in a flow chamber.
(§2) The cells were adherent in monolayers and, upon confluence, were harvested by digestion with trypsin. The cytotoxicity of the complexes against the tumour cells was assessed using the colorimetric assay MTT […], which evaluates the metabolic activity of viable cells. This assay measures the conversion of yellow tetrazolium into purple formazan by an active mitochondrial dehydrogenase in living cells. For this purpose, the cells (10–20 × 10^3 in 200 μL of the medium) were seeded into 96-well plates and incubated in a 5% CO2 incubator at 37°C. The cells were settled for 24 h followed by the addition of a dilution series of the complexes in a medium (200 μL). The complexes were first solubilized in 100% DMSO, given a 10 mM stock solution, and then in a medium within the concentration range of 0.1–100 µM. […] After 24 h of incubation, the treatment solutions were removed by aspiration, and MTT solution (200 μL, 0.5 mg·mL^−1 in PBS) was added to each well. After 3 h at 37°C/5% CO2, the solution was removed, and the purple formazan crystals formed inside the cells were dissolved in DMSO (200 μL) by thorough shaking. The cellular viability was evaluated by measuring the absorbance at 570 nm by using a microplate spectrophotometer. The IC50 values were obtained by dose-response curves using the GraphPad Prism software (vs. 5).
The MDA-MB-231 and MCF-7 human breast cancer cells were purchased from ATCC. MDA-MB-231 and MCF-7 cells were grown in Dulbecco’s modified Eagles’s medium (DMEM high glucose) (Capricorn Scientific) at 37 °C in 5% CO2 supplemented with 10% fetal bovine serum (Capricorn Scientific). All cells were adherent in monolayers and, upon confluence, were washed with phosphate buffer saline (PBS) and harvested by digestion with Trypsin-EDTA 0.05% (v/v). The cells were suspended and transferred into new, sterile, culture flasks, for maintenance or seeded in sterile test microplates for different assays. All cells were manipulated under aseptic conditions in a flow chamber.
The cells were adherent in monolayers and, upon confluency, were harvested by digestion with trypsin. The cytotoxicity of the complexes against the tumour cells was assessed using the colorimetric assay MTT […], which evaluate the metabolic activity of viable cells. This assay measures the conversion of the yellow tetrazolium into purple formazan by an active mitochondrial dehydrogenase in living cells. For this purpose, cells (10-20 × 10^3 in 200 μL of medium) were seeded into 96-well plates and incubated in a 5% CO2 incubator at 37 °C. The cells were settled for 24 h followed by the addition of a dilution series of the complexes in medium (200 μL). The complexes were first solubilized in 100% DMSO, given a 10 mM stock solution, and then in medium within the concentration range of 0.1–100 µM. […] After 24 h of incubation, the treatment solutions were removed by aspiration, and MTT solution (200 μL, 0.5 mg·mL^-1 in PBS) was added to each well. After 3 h at 37 °C/5% CO2, the solution was removed, and the purple formazan crystals formed inside the cells were dissolved in DMSO (200 μL) by thorough shaking. […]

[2] = tested on: MCF-7 breast cancer cells; test: MTT cytotoxicity assay, MCF-7 cells; assay type: cell-based, human; conditions: 24 h incubation, average of at least three experiments (±SD)
Procedure: as §1
The cells were adherent in monolayers and, upon confluence, were harvested by digestion with trypsin. The cytotoxicity of the complexes against the tumour cells was assessed using the colorimetric assay MTT […], which evaluates the metabolic activity of viable cells. This assay measures the conversion of yellow tetrazolium into purple formazan by an active mitochondrial dehydrogenase in living cells. For this purpose, the cells (10–20 × 10^3 in 200 μL of the medium) were seeded into 96-well plates and incubated in a 5% CO2 incubator at 37°C. The cells were settled for 24 h followed by the addition of a dilution series of the complexes in a medium (200 μL). The complexes were first solubilized in 100% DMSO, given a 10 mM stock solution, and then in a medium within the concentration range of 0.1–100 µM. […] The cellular viability was evaluated by measuring the absorbance at 570 nm by using a microplate spectrophotometer. […]
The cells were adherent in monolayers and, upon confluency, were harvested by digestion with trypsin. The cytotoxicity of the complexes against the tumour cells was assessed using the colorimetric assay MTT […], which evaluate the metabolic activity of viable cells. […]

[3] = tested on: normal human fibroblasts (HDF); test: MTT cytotoxicity assay, normal human dermal fibroblasts; assay type: cell-based
Procedure: as §1, §2

[4] = molecular target: human serum albumin (HSA) (Homo sapiens, UniProt P02768); test: Binding to human serum albumin by steady-state and time-resolved Trp214 fluorescence
Procedure: (§3) The stock solutions of HSA were freshly prepared for each experiment by gently dissolving protein in PBS pH 7.4 (tablets from Fisher) for 1 hour to allow protein to completely hydrate. The concentration of the protein in the stock solutions was determined by spectrophotometry using the molar absorption coefficient at 280 nm ε280(HSA) = 36,850 M^−1·cm^−1 [38].
In each essay, all spectroscopic measurements were carried out on individually prepared samples to ensure the same preincubation time at (37.0 ± 0.1)°C, the same % of DMSO in the final samples, and the same exposure to excitation light and to avoid the need for dilution corrections. Moreover, for a direct titration protocol, a highly concentrated stock solution of the compounds in the buffer would be required, which would raise solubility issues. Dimethylsulfoxide (DMSO, from Fisher) was used to prepare concentrated stock solutions of each complex, followed by appropriate dilution to obtain the desired concentration. The DMSO content was kept at 2% (v/v) in PBS pH 7.4 in all samples. Dilutions were carried out immediately before sample preparation.
Fluorescence measurements were performed at 25.0 ± 0.1°C. The final protein concentration in the individually prepared samples (3.72 to 5 μM) was kept constant in each assay, and the complex concentration was varied to obtain desired HSA: Ru-complex molar ratios ranging from 1 : 0.25 to 1 : 10. A control sample containing the same amount of protein and final DMSO content and with no complex was also prepared for each experiment. Appropriate blank samples with no protein but with the same complex concentrations were prepared as well for background correction.
The steady-state fluorescence intensity was measured with excitation at 295 nm, and emission spectra were collected with bandwidths of 4 nm for both excitation and emission. For Stern–Volmer plots, the fluorescence intensity with emission at 340 nm was selected because it is near the maximum emission wavelength (so the sensitivity is close to maximum), but it is further to red in relation to the water Raman scattering peak. These values were corrected for the absorption and emission inner filter effects using the absorbance recorded for each sample at the excitation and emission wavelengths used for the steady-state quenching analysis. For time-resolved fluorescence measurements, the single-photon-counting technique was used with nanoLED N-280 (Horiba Jobin Yvon) as the pulsed excitation source (280 nm) and with emission collected at 350 nm (13 nm emission bandwidth), eliminating the contribution of the emission by tyrosine residues.
The experimental fluorescence intensity decays of HSA in buffer solution can be described by a sum of exponentials:(1) It=∑i=1npiexp−t/τi, where pi and τi are the pre-exponential factors and lifetime of component i, respectively. The amplitude or normalized pre-exponential of each lifetime component αi is pi/Σipi with Σiαi = 1. Fluorescence decays were analysed by an iterative deconvolution method using the TRFA Data Processor software (version 1.4; Minsk, Belarus), and the instrument response function was obtained using scattering by a colloidal suspension of silica (Ludox®, Sigma-Aldrich) diluted in water. Criteria for judging the quality of the fit were reduced χ^2 close to 1 and a random distribution of weighted residuals and residual autocorrelation.
To evaluate changes in the quantum yield by processes affecting the fluorescence lifetimes of HSA, the amplitude-weighted mean fluorescence lifetime ( τ¯ ) was calculated using the following equation:(2) τ¯=∑i=1nαiτi.
as §3, with “dissolving the” for “dissolving”, “allow the” for “allow”, “of” for “of the”, “M^−1 cm^−1.[8] […]” for “M^−1·cm^−1 [38].”

Chain of human serum albumin (HSA) (P02768 25-609): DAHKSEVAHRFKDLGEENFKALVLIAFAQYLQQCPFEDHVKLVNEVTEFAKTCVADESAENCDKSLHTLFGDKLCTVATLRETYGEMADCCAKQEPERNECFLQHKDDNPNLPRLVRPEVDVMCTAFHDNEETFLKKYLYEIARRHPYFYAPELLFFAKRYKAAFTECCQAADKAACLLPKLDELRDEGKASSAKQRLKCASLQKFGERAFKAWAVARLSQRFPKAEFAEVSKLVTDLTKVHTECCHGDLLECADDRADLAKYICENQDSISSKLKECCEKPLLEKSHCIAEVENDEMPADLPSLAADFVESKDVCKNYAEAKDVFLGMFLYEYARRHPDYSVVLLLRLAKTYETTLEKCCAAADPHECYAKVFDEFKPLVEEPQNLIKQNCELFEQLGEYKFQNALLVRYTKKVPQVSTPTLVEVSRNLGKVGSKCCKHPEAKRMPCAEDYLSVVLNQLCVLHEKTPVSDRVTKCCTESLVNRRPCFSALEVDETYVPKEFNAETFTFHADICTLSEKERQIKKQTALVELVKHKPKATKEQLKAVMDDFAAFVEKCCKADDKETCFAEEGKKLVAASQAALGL

SMILES: C1N2CN3CN1CP(C2)C3 [Compound 1, 1,3,5-triaza-7-phosphaadamantane]
- IC50 ([1]; Homo sapiens, MDA-MB-231): > 100 µM

SMILES: CN1CN2C[NH+](C)C[P]([Ru+2]([P](c3ccccc3)(c3ccccc3)c3ccccc3)[P](c3ccccc3)(c3ccccc3)c3ccccc3)(C1)C2.O=S(=O)([O-])C(F)(F)F.O=S(=O)([O-])C(F)(F)F.c1cc[cH-]c1 [Compound 9, [RuCp(HdmoPTA)(PPh3)2](CF3SO3)2]
- IC50 [1]: 0.86 ± 0.13 µM
- IC50 [2]: 0.48 ± 0.07 µM
- IC50 ([3]; 24 h incubation, MTT, normal human fibroblasts): 1.23 ± 0.32 µM
- Fold less cytotoxic for fibroblasts (HDF) than for MCF-7 cells ([3]; selectivity HDF vs MCF-7): 2-3 fold
- Fold less cytotoxic for fibroblasts (HDF) than for MDA-MB-231 cells ([3]; selectivity HDF vs MDA-MB-231): 1.5 fold
- Emission intensity of Trp214 relative to value in the absence of compound ([4]; 20 µM compound (1:4 HSA:compound), 24 h, λem 340 nm): approximately 60%
- Type of quenching ([4]; HSA-Trp214 fluorescence): Static
- Spectral shift of Trp214 emission ([4]; steady-state emission, 24 h incubation): do not induce any spectral shift
- Effect on amplitude-weighted mean fluorescence lifetime of HSA-Trp214 ([4]; time-resolved fluorescence, λem 350 nm): does not affect

SMILES: CN1CN2C[NH+](C)C[P]([Ru+]([Cl])[P](c3ccccc3)(c3ccccc3)c3ccccc3)(C1)C2.O=S(=O)([O-])C(F)(F)F.c1cc[cH-]c1 [Compound 7, [RuClCp(HdmoPTA)(PPh3)](CF3SO3)]
- IC50 [1]: 2.5 ± 1.1 µM
- Fold increase in antiproliferative activity with respect to complex 6 ([1]; MDA-MB-231, 24 h): 4 fold

SMILES: [Cl][Ru+]([P]12CN3CN(CN(C3)C1)C2)[P](c1ccccc1)(c1ccccc1)c1ccccc1.c1cc[cH-]c1 [Compound 5, [RuClCp(PPh3)(PTA)]]
- IC50 [1]: 60 ± 19 µM
- Cytotoxicity (in words) ([1]; MDA-MB-231, MTT, 24 h): Moderate cytotoxicity

SMILES: C[N+]12CN3CP(C1)C[N+](C)(C3)C2 [Compound 3, N,N′-dimethyl-1,3,5-triaza-7-phosphaadamantane]
- IC50 ([1]; Homo sapiens, MDA-MB-231): > 100 µM
